Results: patent publication US20220127297A1, “Novel Antibacterial 3"-Derivatives Of 4,6-Disubstituted 2,5-Dideoxystreptamine Aminoglycoside Antibiotics” (AGILeBiotics B.V., priority 2018, published 2022)
In brackets after ≈: the same amount, converted by molar mass.

Legend:
Assay in all cases: MIC determination at Fidelta, clinical isolates
Format in all cases: cell-based
[1] = test system: clinical isolates of Vancomycin-resistant Enterococcus faecium (VRE)
In short: (§1)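 Clinical isolates and ATCC reference strains revived on MH agar, tested by broth microdilution in Mueller Hinton broth. Compounds from 5 mg/mL DMSO stocks, two-fold serial dilutions, final 64-0.125 μg/mL.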

[2] = test system: clinical isolates of methicillin-resistant Staphylococcus aureus (MRSA)
In short: as §1

[3] = test system: clinical isolates of multidrug-resistant Pseudomonas aeruginosa (and ATCC27853)
In short: as §1

[4] = test system: clinical isolates of multidrug-resistant Acinetobacter baumannii (and ATCC17978)
In short: as §1

[5] = AB-2017, Bronchial aspirate/CRAB
[6] = AB-2019, Bronchial aspirate/CRAB

Structure (SMILES) | MIC90 ([1]; VRE-2005, Urine) | MIC90 ([1]; VRE-2006, Urine) | MIC90 ([1]; VRE-2007, Urine) | MIC90 ([1]; VRE-2008, Urine) | MIC90 ([1]; VRE-2009, Urine) | MIC90 ([1]; VRE-2010, Urine) | MIC90 ([1]; VRE-2011, Rectum) | MIC90 ([1]; VRE-2012, Rectum) | MIC90 ([1]; VRE-2013, Rectum) | MIC90 ([2]; MRSA-1995, Liquor) | MIC90 ([2]; MRSA-1998, Wound) | MIC90 ([2]; MRSA-1999, Skin) | MIC90 ([2]; MRSA-2003, Wound) | MIC90 ([3]; P. aeruginosa ATCC27853 strain) | MIC90 ([3]; PA-1948, Wound/OXA-2) | MIC90 ([3]; PA-1949, Urine/OXA-2) | MIC90 ([3]; PA-1950, Sputum/OXA-2) | MIC90 ([3]; PA-1952, Wound/OXA-2) | MIC90 ([3]; PA-1953, Urine/MDR) | MIC90 ([3]; PA-1954, Sputum/OXA-2) | other results
NCC[C@H](O)C(=O)N[C@@H]1C[C@H](N)[C@@H](O[C@H]2O[C@H](CN)[C@@H](O)[C@H](O)[C@H]2O)[C@H](O)[C@H]1O[C@H]1O[C@H](CO)[C@@H](O)[C@H](N)[C@H]1O [Amikacin, amikacin, reference compound] | > 64 µg/mL | > 64 µg/mL | > 64 µg/mL | > 54 µg/mL | > 64 µg/mL | > 64 µg/mL | > 64 µg/mL | > 64 µg/mL | > 64 µg/mL | 4 µg/mL (≈ 6.83 µM) | 4 µg/mL (≈ 6.83 µM) | 8 µg/mL (≈ 13.7 µM) | 4 µg/mL (≈ 6.83 µM) | – | – | – | – | – | – | – | –
N=C(NCCN)NC1C(O)[C@@H](CO)OC(OC2C(F)[C@H](O[C@H]3OC(CN)[C@@H](O)CC3N)C(N)C[C@H]2NC(=O)[C@@H](O)CCN)[C@@H]1O (some centres unmarked) [ABX5020, Tobra-AHB-F-Gua-2-amino-ethyl] | – | – | – | – | – | – | – | – | – | – | – | – | – | 0.25 µg/mL (≈ 0.381 µM) | 1 µg/mL (≈ 1.53 µM) | 8 µg/mL (≈ 12.2 µM) | 1 µg/mL (≈ 1.53 µM) | 8 µg/mL (≈ 12.2 µM) | 16 µg/mL (≈ 24.4 µM) | 0.5 µg/mL (≈ 0.763 µM) | MIC90 ([4]; A. baumannii ATCC17978 strain): 0.5 µg/mL (≈ 0.763 µM); MIC90 ([4]; AB-1931, Urine/CRAB): 1 µg/mL (≈ 1.53 µM); MIC90 ([4]; AB-1932, Urine (catheter)/CRAB): 1 µg/mL (≈ 1.53 µM); MIC90 [4, 5]: 1 µg/mL (≈ 1.53 µM); MIC90 ([4]; AB-2018, Skin/CRAB): 2 µg/mL (≈ 3.05 µM); MIC90 [4, 6]: 2 µg/mL (≈ 3.05 µM)
N=C(NC[C@@H]1CCNC1)NC1[C@@H](O)C(OC2[C@@H](F)[C@H](O[C@H]3OC(CN)[C@@H](O)CC3N)C(N)C[C@H]2NC(=O)[C@@H](O)CCN)O[C@H](CO)[C@H]1O (stereo partly drawn) [ABX5039, Tobra-AHB-F-Gua (R) pyrrolidine-3-ylmethyl] | 4 µg/mL (≈ 5.75 µM) | 16 µg/mL (≈ 23 µM) | 4 µg/mL (≈ 5.75 µM) | 4 µg/mL (≈ 5.75 µM) | 4 µg/mL (≈ 5.75 µM) | 8 µg/mL (≈ 11.5 µM) | 8 µg/mL (≈ 11.5 µM) | 4 µg/mL (≈ 5.75 µM) | 4 µg/mL (≈ 5.75 µM) | 0.5 µg/mL (≈ 0.719 µM) | 0.25 µg/mL (≈ 0.359 µM) | 0.25 µg/mL (≈ 0.359 µM) | 0.5 µg/mL (≈ 0.719 µM) | 0.5 µg/mL (≈ 0.719 µM) | 1 µg/mL (≈ 1.44 µM) | 8 µg/mL (≈ 11.5 µM) | 1 µg/mL (≈ 1.44 µM) | 4 µg/mL (≈ 5.75 µM) | 32 µg/mL (≈ 46 µM) | 1 µg/mL (≈ 1.44 µM) | MIC90 ([3]; PA-1967, Blood/VIM): 4 µg/mL (≈ 5.75 µM); MIC90 ([4]; A. baumannii ATCC17978 strain): 0.5 µg/mL (≈ 0.719 µM); MIC90 ([4]; AB-1931, Urine/CRAB): 1 µg/mL (≈ 1.44 µM); MIC90 ([4]; AB-1932, Urine (catheter)/CRAB): 1 µg/mL (≈ 1.44 µM); MIC90 ([4]; AB-1964, Blood): 1 µg/mL (≈ 1.44 µM); MIC90 [4, 5]: 1 µg/mL (≈ 1.44 µM); MIC90 ([4]; AB-2018, Skin/CRAB): 1 µg/mL (≈ 1.44 µM); MIC90 [4, 6]: 1 µg/mL (≈ 1.44 µM); MIC90 ([4]; AB-2025, Skin): 1 µg/mL (≈ 1.44 µM); MIC90 ([4]; AB-2026, Skin): 2 µg/mL (≈ 2.87 µM)
N=C(N)NC1C(O)[C@@H](CO)OC(OC2C(F)[C@H](O[C@H]3OC(CN)[C@@H](O)CC3N)C(N)C[C@H]2NC(=O)[C@@H](O)CCN)[C@@H]1O (some centres unmarked) [ABX5006, Tobra-AHB-F-Gua] | 4 µg/mL (≈ 6.53 µM) | 32 µg/mL (≈ 52.2 µM) | 4 µg/mL (≈ 6.53 µM) | 8 µg/mL (≈ 13.1 µM) | 16 µg/mL (≈ 26.1 µM) | 8 µg/mL (≈ 13.1 µM) | 16 µg/mL (≈ 26.1 µM) | 4 µg/mL (≈ 6.53 µM) | 4 µg/mL (≈ 6.53 µM) | 0.5 µg/mL (≈ 0.816 µM) | 0.25 µg/mL (≈ 0.408 µM) | 0.5 µg/mL (≈ 0.816 µM) | 0.5 µg/mL (≈ 0.816 µM) | 0.25 µg/mL (≈ 0.408 µM) | 0.5 µg/mL (≈ 0.816 µM) | 8 µg/mL (≈ 13.1 µM) | 1 µg/mL (≈ 1.63 µM) | 4 µg/mL (≈ 6.53 µM) | 8 µg/mL (≈ 13.1 µM) | 0.5 µg/mL (≈ 0.816 µM) | MIC90 ([3]; PA-1967, Blood/VIM): 4 µg/mL (≈ 6.53 µM); MIC90 ([4]; A. baumannii ATCC17978 strain): <0.125 µg/mL; MIC90 ([4]; AB-1931, Urine/CRAB): 0.5 µg/mL (≈ 0.816 µM); MIC90 ([4]; AB-1932, Urine (catheter)/CRAB): 1 µg/mL (≈ 1.63 µM); MIC90 ([4]; AB-1964, Blood): 1 µg/mL (≈ 1.63 µM); MIC90 [4, 5]: 0.5 µg/mL (≈ 0.816 µM); MIC90 ([4]; AB-2018, Skin/CRAB): 1 µg/mL (≈ 1.63 µM); MIC90 [4, 6]: 1 µg/mL (≈ 1.63 µM); MIC90 ([4]; AB-2025, Skin): 0.5 µg/mL (≈ 0.816 µM); MIC90 ([4]; AB-2026, Skin): 1 µg/mL (≈ 1.63 µM)
N=C(NC[C@@H]1CCCN1)NC1[C@@H](O)C(OC2[C@@H](F)[C@H](O[C@H]3OC(CN)[C@@H](O)CC3N)C(N)C[C@H]2NC(=O)[C@@H](O)CCN)O[C@H](CO)[C@H]1O (stereo partly drawn) [ABX5026, Tobra-AHB-F-Gua (S) pyrrolidine-2-yl-methyl] | 4 µg/mL (≈ 5.75 µM) | 8 µg/mL (≈ 11.5 µM) | 4 µg/mL (≈ 5.75 µM) | 4 µg/mL (≈ 5.75 µM) | 8 µg/mL (≈ 11.5 µM) | 8 µg/mL (≈ 11.5 µM) | 8 µg/mL (≈ 11.5 µM) | 4 µg/mL (≈ 5.75 µM) | 4 µg/mL (≈ 5.75 µM) | 0.5 µg/mL (≈ 0.719 µM) | 0.25 µg/mL (≈ 0.359 µM) | 0.5 µg/mL (≈ 0.719 µM) | 0.5 µg/mL (≈ 0.719 µM) | 1 µg/mL (≈ 1.44 µM) | 1 µg/mL (≈ 1.44 µM) | 16 µg/mL (≈ 23 µM) | 1 µg/mL (≈ 1.44 µM) | 8 µg/mL (≈ 11.5 µM) | 32 µg/mL (≈ 46 µM) | 1 µg/mL (≈ 1.44 µM) | MIC90 ([3]; PA-1967, Blood/VIM): 8 µg/mL (≈ 11.5 µM); MIC90 ([4]; A. baumannii ATCC17978 strain): 0.5 µg/mL (≈ 0.719 µM); MIC90 ([4]; AB-1931, Urine/CRAB): 1 µg/mL (≈ 1.44 µM); MIC90 ([4]; AB-1932, Urine (catheter)/CRAB): 1 µg/mL (≈ 1.44 µM); MIC90 ([4]; AB-1964, Blood): 2 µg/mL (≈ 2.87 µM); MIC90 [4, 5]: 1 µg/mL (≈ 1.44 µM); MIC90 ([4]; AB-2018, Skin/CRAB): 1 µg/mL (≈ 1.44 µM); MIC90 [4, 6]: 1 µg/mL (≈ 1.44 µM); MIC90 ([4]; AB-2025, Skin): 1 µg/mL (≈ 1.44 µM); MIC90 ([4]; AB-2026, Skin): 2 µg/mL (≈ 2.87 µM)
